Columns and labels:
[1] = system: Jurkat NFκB-luciferase cells; experiment: Jurkat NFκB-Luciferase Assay; format: cell-based; details: Homo sapiens; Jurkat NFκB-luciferase cells activated with anti-CD3 antibody (OKT3), 2.5 hrs at 37° C., One-Glo Ex; geometric mean; read-out: DGK NFKb Luciferase EC50;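 also: bioluminescence read-out normalized to DMSO basal activation and to maximum enhancement at 1 µM compound, rising signal indicating stronger T-cell activation through DGKα inhibition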
human DGKα = target: T1, human DGKα (Homo sapiens, UniProt P23743); experiment: DGKα Biochemical Activity Assay (ADP-Glo);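 also: recombinant enzyme converting diacylglycerol in lipid micelles with ATP, ADP formed detected by luminescence, IC50 from a four-parameter nonlinear fit, geometric mean across experiments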
T1 construct: purchased Carna Biosciences'; inferred from the same paragraph's 'obtained from Carna Biosciences')
T1 sequence (P23743 whole entry): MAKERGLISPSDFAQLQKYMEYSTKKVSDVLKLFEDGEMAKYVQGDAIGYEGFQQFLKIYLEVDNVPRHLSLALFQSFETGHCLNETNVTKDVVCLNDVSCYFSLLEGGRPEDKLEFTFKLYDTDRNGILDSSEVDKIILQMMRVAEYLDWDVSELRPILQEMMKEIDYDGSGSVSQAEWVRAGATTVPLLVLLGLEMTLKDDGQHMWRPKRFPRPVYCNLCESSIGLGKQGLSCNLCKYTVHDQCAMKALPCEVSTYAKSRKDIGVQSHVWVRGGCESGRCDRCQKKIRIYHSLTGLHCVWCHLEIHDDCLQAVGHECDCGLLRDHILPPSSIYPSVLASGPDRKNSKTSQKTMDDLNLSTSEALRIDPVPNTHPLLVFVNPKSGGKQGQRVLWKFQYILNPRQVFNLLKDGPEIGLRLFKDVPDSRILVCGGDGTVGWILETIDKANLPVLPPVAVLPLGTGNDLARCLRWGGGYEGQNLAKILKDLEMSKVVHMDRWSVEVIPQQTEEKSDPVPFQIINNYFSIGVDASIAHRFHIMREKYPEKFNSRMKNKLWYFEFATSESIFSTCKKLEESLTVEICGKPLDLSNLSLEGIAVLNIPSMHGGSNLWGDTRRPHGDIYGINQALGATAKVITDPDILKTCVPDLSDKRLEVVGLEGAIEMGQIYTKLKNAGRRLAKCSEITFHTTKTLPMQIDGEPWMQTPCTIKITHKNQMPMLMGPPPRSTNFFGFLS

Row | SMILES | EC50 [1] | IC50 (human DGKα)
1 | CC(F)(F)C1(C#Cc2cncc3c2CCCN3c2nc(=O)[nH]c3cccc(F)c23)CC1 [Example 73, 4-(5-((1-(1,1-difluoroethyl)cyclopropyl)ethynyl)-3,4-dihydro-1,7-naphthyridin-1(2H)-yl)-5-fluoroquinazolin-2(1H)-one] | 1.89 nM | 18.1 nM
2 | CCn1c(=O)nc(N(CC(F)F)c2cc(F)cc(C#CC3(C(F)(F)F)CC3)c2)c2c(F)cccc21 [Example 36, 4-[N-(2,2-difluoroethyl)-3-fluoro-5-[2-[1-(trifluoromethyl)cyclopropyl]ethynyl]anilino]-1-ethyl-5-fluoro-quinazolin-2-one] | 21.1 nM | 184 nM
3 | O=c1nc(N2CCCCc3c(C#CC4(C(F)(F)F)CC4)cccc32)c2c(F)cccc2[nH]1 [Example 156, 5-fluoro-4-(6-((1-(trifluoromethyl)cyclopropyl)ethynyl)-2,3,4,5-tetrahydro-1H-benzo[b]azepin-1-yl)quinazolin-2(1H)-one] | 0.308 nM | 22.6 nM
4 | [2H]C([2H])([2H])n1c(=O)nc(N2CCOCc3c(Br)cccc32)c2c(F)cccc21 [Example 99, 4-(6-bromo-2,3-dihydrobenzo[e][1,4]oxazepin-1(5H)-yl)-5-fluoro-1-(methyl-d3)quinazolin-2(1H)-one] | 8.22 nM | 31.2 nM
5 | CC(C)(O)C#Cc1cccc2c1COCCN2c1nc(=O)[nH]c2cccc(F)c12 [Example 87, 5-fluoro-4-[6-(3-hydroxy-3-methyl-but-1-ynyl)-3,5-dihydro-2H-4,1-benzoxazepin-1-yl]-1H-quinazolin-2-one] | 30.9 nM | 9.58 nM
6 | CCn1c(=O)nc(N(CC(F)F)c2cc(F)cc(C#CC(C)(C)O)c2)c2c(F)cccc21 [Example 37, 4-[N-(2,2-difluoroethyl)-3-fluoro-5-(3-hydroxy-3-methyl-but-1-ynyl)anilino]-1-ethyl-5-fluoro-quinazolin-2-one] | 39.6 nM | 54.3 nM
7 | [2H]C([2H])([2H])n1c(=O)nc(N(CC(F)(F)F)c2cccc(C#CC3(C(F)(F)F)CC3)c2)c2ccc(Cl)cc21 [Example 25, 7-chloro-1-(trideuteriomethyl)-4-[N-(2,2,2-trifluoroethyl)-3-[2-[1-(trifluoromethyl)cyclopropyl]ethynyl]anilino]quinazolin-2-one] | 0.405 nM | 58.8 nM
8 | CC(C)(C#Cc1nccc2c1CCCN2c1nc(=O)[nH]c2cccc(F)c12)C(F)(F)F [Example 131, 5-fluoro-4-[5-(4,4,4-trifluoro-3,3-dimethyl-but-1-ynyl)-3,4-dihydro-2H-1,6-naphthyridin-1-yl]-1H-quinazolin-2-one] | 11.1 nM | 43.7 nM
9 | CN(c1cncc(C#CC2(C(F)(F)F)CC2)n1)c1nc(=O)[nH]c2cc(Cl)ccc12 [Example 13, 7-chloro-4-[methyl-[6-[2-[1-(trifluoromethyl)cyclopropyl]ethynyl]pyrazin-2-yl]amino]-1H-quinazolin-2-one] | 1.16 nM | 20.6 nM
10 | O=c1nc(N2CCOCc3c(C#CC4CC4)cccc32)c2c(F)ccc(F)c2[nH]1 [Example 146] | 4.69 nM | 9.59 nM
11 | [2H]C([2H])([2H])n1c(=O)nc(N(CC(F)F)c2cc(F)cc(C#CC(C)(C)C#N)c2)c2c(F)c(F)ccc21 [Example 68, 4-[3-[2,2-difluoroethyl-[5,6-difluoro-2-oxo-1-(trideuteriomethyl)quinazolin-4-yl]amino]-5-fluoro-phenyl]-2,2-dimethyl-but-3-ynenitrile] | 2.53 nM | 3.29 nM
12 | CC1(C#Cc2cncc3c2CCCCN3c2nc(=O)[nH]c3cccc(F)c23)CC1 [Example 152, 5-fluoro-4-(6-((1-methylcyclopropyl)ethynyl)-2,3,4,5-tetrahydro-1H-pyrido[3,4-b]azepin-1-yl)quinazolin-2(1H)-one] | 0.679 nM | 16.2 nM
13 | CC1(C#Cc2cncc3c2CCCN3c2nc(=O)[nH]c3ccc(F)c(F)c23)CC1 [Example 107, 5,6-difluoro-4-(5-((1-methylcyclopropyl)ethynyl)-3,4-dihydro-1,7-naphthyridin-1(2H)-yl)quinazolin-2(1H)-one] | 0.596 nM | 7.96 nM
14 | [2H]C([2H])([2H])n1c(=O)nc(N(CC(F)F)c2ccnc(C#Cc3cnn(C)c3)c2)c2c(F)cccc21 [Example 137, 4-[2,2-difluoroethyl-[2-[2-(1-methylpyrazol-4-yl)ethynyl]-4-pyridyl]amino]-5-fluoro-1-(trideuteriomethyl)quinazolin-2-one] | 24.2 nM | 10.2 nM
15 | CC(C)(O)C#Cc1cccc2c1COCCN2c1nc(=O)[nH]c2ccc(F)c(F)c12 [Example 88, 5,6-difluoro-4-[6-(3-hydroxy-3-methyl-but-1-ynyl)-3,5-dihydro-2H-4,1-benzoxazepin-1-yl]-1H-quinazolin-2-one] | 21.9 nM | 4.7 nM
16 | O=c1nc(N2CCCc3c(C#CC4(C(F)(F)F)CC4)cccc32)c2c(F)c(F)ccc2[nH]1 [Example 40, 5,6-difluoro-4-[5-[2-[1-(trifluoromethyl)cyclopropyl]ethynyl]-3,4-dihydro-2H-quinolin-1-yl]-1H-quinazolin-2-one] | 0.399 nM | 13.4 nM
17 | [2H]C([2H])([2H])n1c(=O)nc(N(C)c2cc(F)cc(C#CC3(C(F)(F)F)CC3)c2)c2ccc(Cl)cc21 [Example 15, 7-chloro-4-[3-fluoro-N-methyl-5-[2-[1-(trifluoromethyl)cyclopropyl]ethynyl]anilino]-1-(trideuteriomethyl)quinazolin-2-one] | 0.557 nM | 27.3 nM
18 | [2H]C([2H])([2H])n1c(=O)nc(N(CC(F)F)c2cc(F)cc(C#CC3(C(F)(F)F)CC3)c2)c2cc(F)ccc21 [Example 51, 4-[N-(2,2-difluoroethyl)-3-fluoro-5-[2-[1-(trifluoromethyl)cyclopropyl]ethynyl]anilino]-6-fluoro-1-(trideuteriomethyl)quinazolin-2-one] | 0.75 nM | 35.3 nM
19 | O=c1nc(N2CCCCc3c(Br)cncc32)c2c(F)c(F)ccc2[nH]1 [Example 148, 4-(6-bromo-2,3,4,5-tetrahydro-1H-pyrido[3,4-b]azepin-1-yl)-5,6-difluoroquinazolin-2(1H)-one] | 2.77 nM | 44.1 nM
20 | CN(c1cccc(-c2cnc(C3CC3)cn2)c1)c1nc(=O)n(C)c2cc(Cl)ccc12 [Example 11, 7-chloro-4-[3-(5-cyclopropylpyrazin-2-yl)-N-methyl-anilino]-1-methyl-quinazolin-2-one] | 0.709 nM | 4.02 nM
21 | CC1(C#Cc2cccc(N(CC(F)F)c3nc(=O)[nH]c4cccc(F)c34)c2F)CC1 [Example 61, 4-[N-(2,2-difluoroethyl)-2-fluoro-3-[2-(1-methylcyclopropyl)ethynyl]anilino]-5-fluoro-1H-quinazolin-2-one] | 1.7 nM | 48.2 nM
22 | O=c1nc(N(CC(F)F)c2cc(F)cc(C#CC3(C(F)(F)F)CC3)c2)c2c(F)cccc2[nH]1 [Example 16, 4-[N-(2,2-difluoroethyl)-3-fluoro-5-[2-[1-(trifluoromethyl)cyclopropyl]ethynyl]anilino]-5-fluoro-1H-quinazolin-2-one] | 1.19 nM | 252 nM
23 | CC(C)(O)C#Cc1cccc2c1CCCN2c1nc(=O)[nH]c2cccc(Cl)c12 [Example 127, 5-chloro-4-[5-(3-hydroxy-3-methyl-but-1-ynyl)-3,4-dihydro-2H-quinolin-1-yl]-1H-quinazolin-2-one] | 3.92 nM | 8.66 nM
24 | [2H]C([2H])([2H])n1c(=O)nc(N(CC(F)F)c2cc(F)cc(C#CC(C)(C)O)c2)c2c(F)c(F)ccc21 [Example 64, 4-[N-(2,2-difluoroethyl)-3-fluoro-5-(3-hydroxy-3-methyl-but-1-ynyl)anilino]-5,6-difluoro-1-(trideuteriomethyl)quinazolin-2-one] | 8.99 nM | 10.7 nM
25 | O=c1nc(N2CCOCc3c(C#CC4(C(F)(F)F)CC4)cccc32)c2c(F)c(F)ccc2[nH]1 [Example 89, 5,6-difluoro-4-[6-[2-[1-(trifluoromethyl)cyclopropyl]ethynyl]-3,5-dihydro-2H-4,1-benzoxazepin-1-yl]-1H-quinazolin-2-one] | 0.258 nM | 2.26 nM
26 | [2H]C([2H])([2H])n1c(=O)nc(N2CCOCc3c(C#CC4(C(F)(F)F)CCN(CC(F)F)C4)cccc32)c2c(F)cccc21 (stereo not drawn) [Example 172, 4-[6-[2-[1-(2,2-difluoroethyl)-3-(trifluoromethyl)pyrrolidin-3-yl]ethynyl]-3,5-dihydro-2H-4,1-benzoxazepin-1-yl]-5-fluoro-1-(trideuteriomethyl)quinazolin-2-one] | 1.4 nM | 8.07 nM
27 | CC1(C#Cc2cccc3c2CCCCN3c2nc(=O)[nH]c3cccc(F)c23)CC1 [Example 157, 5-fluoro-4-(6-((1-methylcyclopropyl)ethynyl)-2,3,4,5-tetrahydro-1H-benzo[b]azepin-1-yl)quinazolin-2(1H)-one] | 0.58 nM | 26 nM
28 | [2H]C([2H])([2H])n1c(=O)nc(N2CCCc3c(C#CC(C)(C)O)cccc32)c2c(F)cccc21 [Example 55, 5-fluoro-4-[5-(3-hydroxy-3-methyl-but-1-ynyl)-3,4-dihydro-2H-quinolin-1-yl]-1-(trideuteriomethyl)quinazolin-2-one] | 4.68 nM | 5.82 nM
29 | CC(F)(F)C1(C#Cc2cncc3c2CCCN3c2nc(=O)[nH]c3ccc(F)c(F)c23)CC1 [Example 76, 4-(5-((1-(1,1-difluoroethyl)cyclopropyl)ethynyl)-3,4-dihydro-1,7-naphthyridin-1(2H)-yl)-5,6-difluoroquinazolin-2(1H)-one] | 1.51 nM | 16.1 nM
30 | CN(c1cccc(-c2ccc(C3CC3)cc2)c1)c1nc(=O)n(C)c2cc(Cl)ccc12 [Example 2, 7-chloro-4-[3-(4-cyclopropylphenyl)-N-methyl-anilino]-1-methyl-quinazolin-2-one] | 0.479 nM | 15.1 nM
